Source: patent US9486471B2, “Combination therapy for the treatment of cancer” (McMaster University, priority 2012, dated 2016)
Structures can show the parent of a compound that is named as a salt. Where two headings read alike, the source gives them in different places.

Columns and labels:
[1] = system: AML-OCI2 and AML-OCI3 cell lines; experiment: Volumetric cell counting of AML cell lines treated with DR antagonists and agonists; assay type: cell-based, human; details: 72 h, serum-free conditions
Procedure: Volumetric Cell Counting. The number of AML-OCI2 and AML-OCI3 cells present after 72 h treatment with DR antagonists (FIG. 16b) and agonist (FIG. 16c-d) were counted by measuring the number of events within a fixed volume following the grating strategy defined by forward scatter and side scatter clustering, 7AAD− and Hoechst+.
Due to the bioavailability of dopamine in fetal bovine serum (FBS) (Little et al., 2002), serum-free conditions were employed to assess the role of DRs in AML.

AML patient blast cells = experiment: Methylcellulose colony-forming assay, AML patient blast-CFU; assay type: cell-based, human
Procedure: (§1) AML/HPSC Cell Culture. AML cell lines, namely, OCI-AML2 (M4), OCI-AML3 (M4), HL-60 (M2) and MV-4-11(M5) were cultured in RPMI (Gibco) supplemented with 5% heated-inactivated FBS (HyClone). For DR agonist studies with R(+)-7-Hydroxy-DPAT hydrobromide (Sigma), serum-free conditions were employed instead due to the prevalence of dopamine in FBS (Little et al., 2002). AML patient blasts were cultured in IMDM supplemented with 5% heated inactivated FBS (HyClone), 5 ng/mL IL3 (R&D systems), 5×10^−5 M β-mercaptoethanol (Sigma) and BIT (StemCell Technologies). HSC media contained IMDM supplemented with 1% BSA (Sigma), 100 ng/mL SCF (R&D systems), 100 ng/mL Flt-3L (R&D systems) and 20 ng/mL TPO (R&D systems). Patient HSPC and AML samples were treated with compound or DMSO-vehicle (0.1%) for 24 h prior to CFU plating or xenotransplantation studies.
(§2) Methylcellulose Colony-Forming Assay. AML patient or CB lin− cells were cultured 24 hours in the presence of compound or DMSO-vehicle (0.1%) control. AML cells were plated at 50 000 cells/mL in Methocult GF H4434 (Stem Cell Technologies). CB lin− cells were plated at 1000 cells/mL in Methocult GF H4434 (Stem Cell Technologies). Colonies were scored after 14 days of culture using standard morphological criteria.

[2] = system: v1H9-Oct4-GFP neoplastic hPSC; experiment: Chemical screening of neoplastic hPSC reporter line (GFP / Hoechst, loss of pluripotency); assay type: cell-based, human; details: for activity at 10 µM: read-out: Hoechst % residual activity (% RA); for hit in extended screen (loss of pluripotency): 2446 compound screen, reduced mean GFP intensity and cell count
Procedure: In Vitro Culture Platform for Normal and Neoplastic hPSCs. Chemical screens involved v1H9-Oct4-GFP cells seeded at 5,000 cells per well in mouse embryonic fibroblast conditioned media (MEFCM) supplemented with 8 ng/ml bFGF. 24 hours later the media was exchanged for MEFCM with compounds at 10 μM and 0.1% DMSO, 0.1% DMSO (−BMP4) or 100 ng/ml of BMP4 and 0.1% DMSO (+BMP4) for 48 hours before being exchanged with fresh media with compound for a further 24 h (total compound treatment time 72 h) prior to being fixed and prepared for automated imaging and plate reader analysis. Confluent H9 & fibroblast-derived iPSC were seeded at 10,000 cells per well in MEFCM supplemented with 8 ng/ml bFGF. 24 hours later the cells were treated with compounds at 10 μM and 0.1% DMSO, 0.1% DMSO (−BMP4) or 100 ng/ml of BMP4 and 0.1% DMSO (+BMP4). Fresh MEFCM supplemented with compounds was exchanged daily for 5 days. On day 5, hPSC's were fixed and prepared for automated imaging and plate reader analysis. See supplementary experimental procedures for further details.
Imaging Neoplastic hPSC. Cells were fixed in 2% paraformaldehyde and stained with 10 μg/mL Hoechst 33342 (Invitrogen) with a Combi Multidrop Dispenser (Thermo). For experiments that involved Oct4 immunocytochemistry, a monoclonal antibody for Oct4 (BD) was used along with an Alexa-Fluor-647 secondary (Invitrogen). Immunocytochemical staining was performed by a Janus automated liquid handler (Perkin Elmer). Images were acquired at 10× N.A with an Arrayscan HCS VTI Reader (Cellomics) by means of epi-fluorescence illumination and standard filter sets.
Image Analysis. Image analysis was performed using custom scripts in Acapella software (Perkin Elmer). Nuclear objects were segmented from the Hoechst signal. For neoplastic cell lines, object intensity analysis was performed on GFP positive cells only. For normal cell lines, the fraction of Alexa-Fluor-647-positive cells was quantified. Images and well-level data were stored and analysed in a Columbus Database (Perkin Elmer) and further data analysis, compounds registration and hit identification in ActivityBase (IDBS).
These Collections have been previously scrutinized in numerous other mammalian cell lines (Diallo et al., 2010; Shoemaker, 2006).

[3] = system: HL-60, MV4-11 and OCI-AML3 leukemic cell lines; experiment: Normalized cell number of leukemic cell lines after 72 h incubation (Examples 1, 3); assay type: cell-based, human; details: 10 μM
Procedure: All three lines are leukemic cell lines. […] Each condition had three replicates.
The dopamine receptor antagonist and phenothiazine-related compound chlorpromazine was also investigated for effects on the AML cell lines HL-60, MV4-11 and OCI-AML3. Testing was performed as set out in Example 1.

[4] = system: AML cell lines HL-60, OCI-AML2 and OCI-AML3
Procedure: All three lines are leukemic cell lines. HL-60 was derived from promyelocytic AML whereas MV 4-11 and OCI-AML3 are representative of AML. Each compound was incubated with the cells for 72 h. The control was DMSO (ie the vehicle used for the compound) for 72 h. Each condition had three replicates.
A series of dopamine receptor agonists, D3-antagonists, DR1 & 5-antagonists and multi-receptor antagonists were tested for cytotoxicity against three AML cell lines HL-60, OCI-AML2 and OCI-AML3. Testing was performed as set out in Example 1.

[5] = system: p53 and p21 in neoplastic hPSCs; experiment: p53 and p21 accumulation in neoplastic hPSCs; assay type: cell-based, human; details: 24 h; 10 μM etoposide, 10 μM thioridazine, BMP4
Description: Antibodies. Antibodies used for immunocytochemistry were the following: Oct3/4 (BD Trunsduction Laboratories, cat#611203), Sox2 (R&D, cat#AF2018). To detect human hematopoietic cells, Pacific Blue-, PE-, APC- or FITC labeled anti-human CD45 was used (BD Biosciences). FITC anti-CD33, PE anti-CD13, FITC anti-CD41a, FITC anti-HLA DR, and PE anti-CD19 antibodies were obtained from BD Pharmingen. PE anti-CD14, PE anti-CD15 and PE anti-GlyA were acquired from Immunotech Beckman Coulter. To determine pluripotency, PE anti-SSEA3 (BD Biosciences) and PE- or AlexaFluor488 anti-Oct4 (BD Biosciences). Rabbit anti-human dopamine receptor antibodies; DRD1 (Cat#324390), DRD2 (Cat#324393), DRD3 (Cat#324402), DRD4 (Cat#324405) and DRD5 (Cat#324408) were sourced from EMD Chemical. Anti-rabbit Alexa-Fluor-488 (Molecular Probes) was used as the secondary antibody. Primary anti-p53 (Cat#2527) and anti-p21 (Cat#2947) rabbit IgG sourced from Cell Signaling Technology were used to stain fixed and permeabilized cells. Anti-rabbit alexa-Fluor-546 (Molecular Probes) was used as the secondary antibody.

[6] = system: neoplastic hPSCs (v1H9-Oct4-GFP); experiment: Flow cytometry of Oct4 in neoplastic hPSCs; assay type: cell-based, human
[7] = system: AML LSCs (CD45+CD33+ blast engraftment); experiment: Xenotransplantation of compound-treated AML cells into NSG mice; assay type: in vivo; details: 10 μM, 24 h ex vivo treatment
Procedure: Xenotransplantation Assays. NOD.Cg-Prkdc^scid II2rg^tm1Wjl/SzJ adult mice (NSG) were sub-lethally irradiated with 315 rads 24 hours prior transplantation. 0.8-1.0×10^7 AML MNCs or 1.5-1.8×10^5 CB lin-hematopoietic cells treated with compound or DMSO-vehicle for 24 h were injected via tail vein (IV). After 6-10 weeks, animals were culled, and the BM and spleen were analyzed for the presence of human cells by flow cytometry (LSRII, BD) and data was analyzed using FlowJo software (Tree Star Inc). For secondary HSPC transplants, equal number of engrafted human cells from CB lin− transplants were injected IV in adult irradiated NSG mice as described for primary transplants.
To delineate whether the inhibition of AML-blasts detected in vitro was due to the compounds affecting the neoplastic stem cell compartment, xenotransplantation studies (Dick, 2008) that functionally define LSCs and hematopoietic stem cells (HSCs) were conducted (FIG. 12).

[8] = system: hematopoietic stem and progenitor cells (HSPC, CB lin-); experiment: Methylcellulose colony-forming assay, HSPC (CB lin-)
Procedure: as §1, §2

[9] = Homo sapiens, 10 μM, 590 compound screen

Br.CCCN(CCC)[C@@H]1CCc2ccc(O)cc2C1 [7OH-DPAT, R(+)-7-Hydroxy-DPAT hydrobromide]
number of AML cells [1]: increased the number of AML cells

Nc1ccn([C@@H]2O[C@H](CO)[C@@H](O)[C@@H]2O)c(=O)n1 [AraC, Arabinofuranosyl Cytidine]
effective concentration (ECArac) (AML patient blast cells; concentration that reduced AML-blast-CFU while retaining HSPC function, single drug): 100 nM

Oc1cc2c(cc1O)[C@@H](c1ccccc1)CNCC2 [SKF38393, (R)-(+)-SKF-38393 hydrochloride]
number of AML cells [1]: significant reduction

Cn1cnc([N+](=O)[O-])c1Sc1ncnc2nc[nH]c12 [azathioprine]
activity at 10 µM [2, 9]: > 30%

CN(C)CCCN1c2ccccc2Sc2ccc(Cl)cc21 [chlorpromazine, Chlorpromazine hydrochloride]
normalized cell number / toxicity [3]: toxic
cytotoxicity of AML cell lines [4]: significant effect
cell count ([4]; 72 h, relative to control): eradicate the AML cell lines
number of AML cells [1]: reduced the number of AML cells

CN1CCN(C2=Nc3cc(Cl)ccc3Nc3ccccc32)CC1 [clozapine, Clozapine]
cytotoxicity of AML cell lines [4]: significant effect

COc1cc([C@@H]2c3cc4c(cc3[C@@H](O[C@@H]3O[C@@H]5CO[C@@H](C)O[C@H]5[C@H](O)[C@H]3O)[C@H]3COC(=O)[C@H]23)OCO4)cc(OC)c1O [etoposide]
accumulation of cell stress marker p53 [5]: high levels
accumulation of p21 [5]: high levels

OCCN1CCN(CCCN2c3ccccc3Sc3ccc(C(F)(F)F)cc32)CC1 [fluphenazine]
hit in extended screen (loss of pluripotency) [2]: hits

CNC1CC(c2ccc(Cl)c(Cl)c2)c2ccccc21 (stereo not shown) [indatraline]
activity at 10 µM ([2]; Homo sapiens): > 30%

OC(c1cc(C(F)(F)F)nc2c(C(F)(F)F)cccc12)C1CCCCN1 (stereo not shown) [mefloquine]
activity at 10 µM [2, 9]: > 30%
EC50 ([2]; Homo sapiens, dose response, v1H9-Oct4-GFP, read-out: EC50 (reduction in GFP intensity)): < 10 µM
cell number [6]: reductions
levels of Oct4 [6]: reductions
AML-blast CFU formation (AML patient blast cells; dose not stated in the sentence (0.1, 1, 10 μM tested)): reduced
leukemic disease-initiating AML LSC capacity [7]: ineffective

CN1CCN(CCCN2c3ccccc3Sc3ccc(Cl)cc32)CC1 [prochlorperazine]
hit in extended screen (loss of pluripotency) [2]: hits

CC[C@@H](C(=O)[C@@H](C)[C@@H](O)[C@H](C)[C@@H]1O[C@@H]([C@@H](CC)C(=O)O)CC[C@@H]1C)[C@H]1O[C@]2(C=C[C@@H](O)[C@]3(CC[C@@](C)([C@H]4CC[C@](O)(CC)[C@H](C)O4)O3)O2)[C@H](C)C[C@@H]1C [salinomycin]
HSPC CFU potential [8]: reduced
AML-blast CFU potential (AML patient blast cells; 1 μM): reduced
AML-blast CFU potential (AML patient blast cells; 10 μM): reduced

B1: BMP4: differentiation control, 100 ng/ml of BMP4 (protein, UniProt P12644 293-408, looked up)
Bone morphogenetic protein 4: SPKHHSQRARKKNKNCRRHSLYVDFSDVGWNDWIVAPPGYQAFYCHGDCPFPLADHLNSTNHAIVQTLVNSVNSSIPKACCVPTELSAISMLYLDEYDKVVLKNYQEMVVEGCGCR
accumulation of cell stress marker p53 [5]: no accumulation
accumulation of p21 [5]: no accumulation
